The results in this text go back to ChEMBL document CHEMBL5465560, “Selectivity Literature for EUbOPEN Chemogenomic Library” (2024).

Experiment [1] deals with T1, Serine/threonine-protein kinase BRSK1 (Homo sapiens) (UniProt Q8TDC3).
T1 sequence (whole entry): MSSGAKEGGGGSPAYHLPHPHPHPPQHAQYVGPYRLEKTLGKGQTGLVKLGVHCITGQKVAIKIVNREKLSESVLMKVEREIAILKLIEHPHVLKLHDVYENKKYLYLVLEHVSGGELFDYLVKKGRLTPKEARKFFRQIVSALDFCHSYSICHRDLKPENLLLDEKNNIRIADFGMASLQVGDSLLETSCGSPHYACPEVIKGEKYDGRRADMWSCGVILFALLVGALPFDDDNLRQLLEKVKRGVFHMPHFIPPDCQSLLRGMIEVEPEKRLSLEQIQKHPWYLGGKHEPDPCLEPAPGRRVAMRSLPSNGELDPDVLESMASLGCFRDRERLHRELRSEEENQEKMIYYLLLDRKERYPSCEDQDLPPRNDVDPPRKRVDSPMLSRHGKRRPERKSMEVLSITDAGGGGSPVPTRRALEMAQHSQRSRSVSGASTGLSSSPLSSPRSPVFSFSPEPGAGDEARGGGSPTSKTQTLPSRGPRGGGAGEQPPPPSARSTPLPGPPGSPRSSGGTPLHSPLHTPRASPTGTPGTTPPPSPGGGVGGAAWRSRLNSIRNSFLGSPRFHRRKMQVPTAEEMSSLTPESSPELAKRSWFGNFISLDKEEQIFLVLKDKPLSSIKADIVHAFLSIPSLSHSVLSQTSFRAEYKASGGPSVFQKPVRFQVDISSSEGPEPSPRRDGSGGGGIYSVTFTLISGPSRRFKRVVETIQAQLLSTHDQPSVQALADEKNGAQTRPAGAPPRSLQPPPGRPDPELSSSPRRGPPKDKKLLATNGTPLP
The conditions noted are these: at 10 µM.

For experiment [2], the target named is Tyrosine-protein kinase ABL2 (Homo sapiens, UniProt P42684). Nature of the experiment: Selectivity interaction (ActivX KiNativ screen (ex vivo kinase selectivity in human PBMCs)) EUB0001619a ABL2. The note with it: PBMC, at 1 µM. It is filed as cell-based.
Chain of Tyrosine-protein kinase ABL2 (P42684 whole entry): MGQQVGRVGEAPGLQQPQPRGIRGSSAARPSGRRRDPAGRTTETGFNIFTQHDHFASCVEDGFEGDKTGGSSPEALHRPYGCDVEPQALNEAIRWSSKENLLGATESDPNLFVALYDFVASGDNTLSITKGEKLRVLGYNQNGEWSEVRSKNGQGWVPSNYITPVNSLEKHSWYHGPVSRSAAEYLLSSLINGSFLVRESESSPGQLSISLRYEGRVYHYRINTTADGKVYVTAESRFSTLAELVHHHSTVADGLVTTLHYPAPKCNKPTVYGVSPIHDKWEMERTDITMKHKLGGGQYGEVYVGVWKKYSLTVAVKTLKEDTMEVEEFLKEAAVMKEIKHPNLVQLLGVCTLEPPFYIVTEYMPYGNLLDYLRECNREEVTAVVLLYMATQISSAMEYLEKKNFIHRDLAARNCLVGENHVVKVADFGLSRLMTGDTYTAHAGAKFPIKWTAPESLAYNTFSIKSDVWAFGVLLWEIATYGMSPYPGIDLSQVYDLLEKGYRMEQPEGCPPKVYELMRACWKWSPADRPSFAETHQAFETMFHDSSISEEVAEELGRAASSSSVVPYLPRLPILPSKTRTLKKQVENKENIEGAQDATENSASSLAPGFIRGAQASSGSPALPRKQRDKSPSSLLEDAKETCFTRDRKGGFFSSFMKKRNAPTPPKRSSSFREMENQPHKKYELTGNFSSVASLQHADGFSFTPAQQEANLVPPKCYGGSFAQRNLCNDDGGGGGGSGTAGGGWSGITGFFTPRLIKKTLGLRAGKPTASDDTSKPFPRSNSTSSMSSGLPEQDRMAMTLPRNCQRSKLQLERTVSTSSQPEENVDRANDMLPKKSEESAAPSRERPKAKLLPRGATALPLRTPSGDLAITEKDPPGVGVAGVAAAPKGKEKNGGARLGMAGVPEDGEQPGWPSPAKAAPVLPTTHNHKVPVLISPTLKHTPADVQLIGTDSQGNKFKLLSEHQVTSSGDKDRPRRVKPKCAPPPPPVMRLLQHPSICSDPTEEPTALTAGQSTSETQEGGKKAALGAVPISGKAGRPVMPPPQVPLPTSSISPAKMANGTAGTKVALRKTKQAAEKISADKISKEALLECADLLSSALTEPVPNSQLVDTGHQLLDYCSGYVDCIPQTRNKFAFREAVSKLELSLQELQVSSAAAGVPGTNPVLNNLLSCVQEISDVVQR
Experiment [3] deals with Serine/threonine-protein kinase 38 (Homo sapiens) (UniProt Q15208). Nature of the experiment: Selectivity interaction (KinomeScan (DiscoverX)) EUB0001619a STK38. The conditions noted are these: at 1 µM.
Chain of Serine/threonine-protein kinase 38 (Homo sapiens) (Q15208 2-465 limits assumed): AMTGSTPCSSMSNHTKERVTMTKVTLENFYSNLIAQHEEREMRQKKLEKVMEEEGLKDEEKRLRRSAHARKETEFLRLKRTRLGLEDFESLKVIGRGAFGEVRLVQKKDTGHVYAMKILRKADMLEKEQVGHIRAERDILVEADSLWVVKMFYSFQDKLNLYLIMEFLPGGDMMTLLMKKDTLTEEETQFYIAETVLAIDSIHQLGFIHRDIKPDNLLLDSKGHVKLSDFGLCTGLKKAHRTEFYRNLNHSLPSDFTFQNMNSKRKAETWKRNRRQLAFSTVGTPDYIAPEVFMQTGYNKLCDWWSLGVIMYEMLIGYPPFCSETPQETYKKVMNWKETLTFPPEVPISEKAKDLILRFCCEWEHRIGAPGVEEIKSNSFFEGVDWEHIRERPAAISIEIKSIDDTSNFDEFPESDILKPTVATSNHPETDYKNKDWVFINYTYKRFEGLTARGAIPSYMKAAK
The target in experiment [4] is Myosin light chain kinase 2, skeletal/cardiac muscle (Homo sapiens) (UniProt Q9H1R3). Kind of experiment: Selectivity interaction (KinomeScan (DiscoverX)) EUB0000695a MYLK2. The conditions noted are these: at 100 nM.
Chain of Myosin light chain kinase 2, skeletal/cardiac muscle (Homo sapiens) (Q9H1R3 whole entry): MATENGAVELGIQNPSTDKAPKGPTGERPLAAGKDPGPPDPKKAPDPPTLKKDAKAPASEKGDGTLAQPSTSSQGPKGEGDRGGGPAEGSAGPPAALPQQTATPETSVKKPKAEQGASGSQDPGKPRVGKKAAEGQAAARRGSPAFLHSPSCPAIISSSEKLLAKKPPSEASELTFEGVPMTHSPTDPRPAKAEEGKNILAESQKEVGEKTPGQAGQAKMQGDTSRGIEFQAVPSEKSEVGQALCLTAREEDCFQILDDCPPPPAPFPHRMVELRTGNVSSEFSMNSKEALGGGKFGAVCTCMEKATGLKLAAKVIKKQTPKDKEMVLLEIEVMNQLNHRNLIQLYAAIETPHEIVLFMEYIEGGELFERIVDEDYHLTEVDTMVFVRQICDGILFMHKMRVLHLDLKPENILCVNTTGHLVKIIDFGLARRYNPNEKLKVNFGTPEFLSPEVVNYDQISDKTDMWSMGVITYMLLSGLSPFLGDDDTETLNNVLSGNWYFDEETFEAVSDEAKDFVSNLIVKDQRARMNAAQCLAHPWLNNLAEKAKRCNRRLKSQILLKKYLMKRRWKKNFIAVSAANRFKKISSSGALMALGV
The target in experiment [5] is T2, Protein kinase C epsilon type (Homo sapiens) (UniProt Q02156).
T2 sequence (whole entry): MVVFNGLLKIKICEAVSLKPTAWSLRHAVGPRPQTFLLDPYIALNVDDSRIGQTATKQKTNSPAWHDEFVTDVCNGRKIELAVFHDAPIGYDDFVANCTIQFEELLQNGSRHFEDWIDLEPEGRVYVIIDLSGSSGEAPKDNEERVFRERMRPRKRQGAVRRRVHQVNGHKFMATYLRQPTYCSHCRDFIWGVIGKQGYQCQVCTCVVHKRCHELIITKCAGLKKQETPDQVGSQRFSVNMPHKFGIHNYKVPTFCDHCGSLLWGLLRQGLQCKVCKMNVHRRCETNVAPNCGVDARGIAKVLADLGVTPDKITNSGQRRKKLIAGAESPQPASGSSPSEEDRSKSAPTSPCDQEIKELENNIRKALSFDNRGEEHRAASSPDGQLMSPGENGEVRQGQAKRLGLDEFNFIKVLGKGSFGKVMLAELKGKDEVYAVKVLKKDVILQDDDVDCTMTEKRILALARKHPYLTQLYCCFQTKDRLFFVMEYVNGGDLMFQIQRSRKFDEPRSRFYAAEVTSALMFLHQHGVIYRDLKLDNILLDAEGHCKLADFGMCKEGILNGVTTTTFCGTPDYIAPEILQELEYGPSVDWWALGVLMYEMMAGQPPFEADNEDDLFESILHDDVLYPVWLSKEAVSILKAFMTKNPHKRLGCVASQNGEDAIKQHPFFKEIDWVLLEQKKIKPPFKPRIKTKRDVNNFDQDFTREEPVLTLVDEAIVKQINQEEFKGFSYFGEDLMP
Nature of the experiment: Selectivity interaction (KinomeScan (DiscoverX)) EUB0000607a PRKCE. The note with it: at 10 µM.

Experiment [6] addresses Serine/threonine-protein kinase 35 (Homo sapiens) (UniProt Q8TDR2). The note with it: at 10 µM.
The target of experiment [7] is Cyclin-dependent kinase 1 (Homo sapiens) (UniProt P06493). Kind of experiment: Selectivity interaction (Kinase screening (Nanosyn)) EUB0000604a CDK1.
In experiment [8] the target is Ribosomal protein S6 kinase alpha-5 (Homo sapiens) (UniProt O75582). Kind of experiment: Selectivity interaction (Kinase screening (Nanosyn)) EUB0000604a RPS6KA5.
Chain of Ribosomal protein S6 kinase alpha-5 (Homo sapiens) (O75582 whole entry, looked up): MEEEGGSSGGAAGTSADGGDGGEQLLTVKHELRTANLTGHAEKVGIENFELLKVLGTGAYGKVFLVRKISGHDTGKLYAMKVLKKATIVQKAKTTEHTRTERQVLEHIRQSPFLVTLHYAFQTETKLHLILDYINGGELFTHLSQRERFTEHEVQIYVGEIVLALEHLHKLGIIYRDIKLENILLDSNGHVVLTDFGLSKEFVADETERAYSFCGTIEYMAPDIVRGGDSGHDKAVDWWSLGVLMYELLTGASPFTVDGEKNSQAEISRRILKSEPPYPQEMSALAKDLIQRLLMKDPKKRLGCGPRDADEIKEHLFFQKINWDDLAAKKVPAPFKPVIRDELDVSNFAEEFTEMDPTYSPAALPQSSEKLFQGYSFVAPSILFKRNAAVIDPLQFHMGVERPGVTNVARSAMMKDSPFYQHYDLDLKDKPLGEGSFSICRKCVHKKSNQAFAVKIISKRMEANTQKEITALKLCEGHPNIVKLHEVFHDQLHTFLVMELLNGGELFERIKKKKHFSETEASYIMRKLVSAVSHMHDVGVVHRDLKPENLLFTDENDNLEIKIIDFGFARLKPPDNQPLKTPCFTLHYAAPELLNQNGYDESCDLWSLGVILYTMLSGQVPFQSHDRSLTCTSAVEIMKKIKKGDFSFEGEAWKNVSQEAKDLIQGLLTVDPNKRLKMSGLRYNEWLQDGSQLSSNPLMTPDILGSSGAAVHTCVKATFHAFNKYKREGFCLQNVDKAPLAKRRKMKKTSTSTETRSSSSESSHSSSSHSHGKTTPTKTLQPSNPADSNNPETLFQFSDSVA
Experiment [9] concerns the target Tyrosine-protein kinase receptor UFO (Homo sapiens) (UniProt P30530). Nature of the experiment: Selectivity interaction (KinomeScan (DiscoverX)) EUB0000045b AXL.
The target of experiment [10] is Tyrosine-protein kinase JAK1 (Homo sapiens, UniProt P23458). Kind of experiment: Selectivity interaction (KinomeScan (DiscoverX)) EUB0001049a JAK1. The note with it: at 1 µM.
Chain of Tyrosine-protein kinase JAK1 (P23458 whole entry): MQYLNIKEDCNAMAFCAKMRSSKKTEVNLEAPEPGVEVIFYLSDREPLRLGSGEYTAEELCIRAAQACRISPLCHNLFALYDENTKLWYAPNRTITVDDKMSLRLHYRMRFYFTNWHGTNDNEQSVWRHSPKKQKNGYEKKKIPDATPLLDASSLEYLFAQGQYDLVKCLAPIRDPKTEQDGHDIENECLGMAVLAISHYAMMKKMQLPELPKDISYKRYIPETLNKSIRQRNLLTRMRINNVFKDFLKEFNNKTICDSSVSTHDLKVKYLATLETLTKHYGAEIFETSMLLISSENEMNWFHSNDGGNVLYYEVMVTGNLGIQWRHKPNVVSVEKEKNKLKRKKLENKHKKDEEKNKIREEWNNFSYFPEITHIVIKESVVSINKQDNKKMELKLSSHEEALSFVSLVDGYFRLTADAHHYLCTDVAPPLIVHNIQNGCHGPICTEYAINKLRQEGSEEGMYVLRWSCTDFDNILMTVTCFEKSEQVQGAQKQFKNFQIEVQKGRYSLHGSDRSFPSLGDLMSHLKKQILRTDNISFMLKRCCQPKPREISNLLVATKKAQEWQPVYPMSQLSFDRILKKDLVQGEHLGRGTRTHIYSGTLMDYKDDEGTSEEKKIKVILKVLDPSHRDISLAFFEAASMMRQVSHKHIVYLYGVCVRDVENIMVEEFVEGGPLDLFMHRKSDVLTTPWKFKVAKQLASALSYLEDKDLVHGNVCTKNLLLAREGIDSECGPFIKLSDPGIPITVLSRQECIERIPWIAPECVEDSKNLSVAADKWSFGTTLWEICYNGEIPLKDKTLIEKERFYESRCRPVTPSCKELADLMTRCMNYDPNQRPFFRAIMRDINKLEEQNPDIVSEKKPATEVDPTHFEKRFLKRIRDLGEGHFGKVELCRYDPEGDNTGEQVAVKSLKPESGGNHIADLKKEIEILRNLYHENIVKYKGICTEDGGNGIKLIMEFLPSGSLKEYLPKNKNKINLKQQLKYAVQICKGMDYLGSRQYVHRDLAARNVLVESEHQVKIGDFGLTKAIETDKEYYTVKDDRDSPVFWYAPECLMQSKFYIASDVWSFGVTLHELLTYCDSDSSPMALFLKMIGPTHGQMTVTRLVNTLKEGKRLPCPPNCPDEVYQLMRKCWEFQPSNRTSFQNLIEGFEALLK
Experiment [11] deals with T3, 5-hydroxytryptamine receptor 3A (Homo sapiens) (UniProt P46098).
T3 sequence (whole entry): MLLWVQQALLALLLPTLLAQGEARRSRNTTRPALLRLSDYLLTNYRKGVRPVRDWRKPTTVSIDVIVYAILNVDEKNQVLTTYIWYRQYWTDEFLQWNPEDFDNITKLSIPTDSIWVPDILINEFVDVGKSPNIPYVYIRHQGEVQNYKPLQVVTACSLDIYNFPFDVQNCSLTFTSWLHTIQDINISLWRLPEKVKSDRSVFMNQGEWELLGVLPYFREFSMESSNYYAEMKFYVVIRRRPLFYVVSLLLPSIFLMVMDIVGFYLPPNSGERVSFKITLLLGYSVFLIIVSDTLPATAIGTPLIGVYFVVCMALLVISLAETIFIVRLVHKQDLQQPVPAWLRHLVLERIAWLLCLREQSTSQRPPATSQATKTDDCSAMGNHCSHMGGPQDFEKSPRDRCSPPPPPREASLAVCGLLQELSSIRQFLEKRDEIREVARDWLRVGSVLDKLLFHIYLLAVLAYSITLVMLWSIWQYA
Nature of the experiment: Selectivity interaction (Panel of kinases, GPCRs, ion channels and transporters (enzymatic assay)) EUB0000223bCl HTR3A.

Experiment [12] has as its target Nuclear body protein SP140 (Homo sapiens) (UniProt Q13342). Nature of the experiment: Selectivity interaction (Bromodomain panel (DSF asssay)) EUB0000270b SP140.
The target in experiment [13] is STE20/SPS1-related proline-alanine-rich protein kinase (Homo sapiens) (UniProt Q9UEW8). Nature of the experiment: Selectivity interaction (Kinase panel (DSF assay)) EUB0001558a STK39. (In general: Differential scanning fluorimetry follows unfolding on heating by fluorescence.)
Experiment [14] has as its target Serine/threonine-protein kinase 38-like (Homo sapiens) (UniProt Q9Y2H1). Nature of the experiment: Selectivity interaction (Kinase panel (KiNativ target engagement assay in Jurkat cells)) EUB0001635a STK38L. Type of experiment: cell-based. The conditions noted are these: Selectivity number of off-targets 0.0, Selectivity number of targets 233.0, Source Knowledge https://www.sciencedirect.com/science/article/pii/S2451945619300674?via%3Dihub, at 1 µM.

Chain of Tyrosine-protein kinase receptor UFO (Homo sapiens) (P30530 whole entry): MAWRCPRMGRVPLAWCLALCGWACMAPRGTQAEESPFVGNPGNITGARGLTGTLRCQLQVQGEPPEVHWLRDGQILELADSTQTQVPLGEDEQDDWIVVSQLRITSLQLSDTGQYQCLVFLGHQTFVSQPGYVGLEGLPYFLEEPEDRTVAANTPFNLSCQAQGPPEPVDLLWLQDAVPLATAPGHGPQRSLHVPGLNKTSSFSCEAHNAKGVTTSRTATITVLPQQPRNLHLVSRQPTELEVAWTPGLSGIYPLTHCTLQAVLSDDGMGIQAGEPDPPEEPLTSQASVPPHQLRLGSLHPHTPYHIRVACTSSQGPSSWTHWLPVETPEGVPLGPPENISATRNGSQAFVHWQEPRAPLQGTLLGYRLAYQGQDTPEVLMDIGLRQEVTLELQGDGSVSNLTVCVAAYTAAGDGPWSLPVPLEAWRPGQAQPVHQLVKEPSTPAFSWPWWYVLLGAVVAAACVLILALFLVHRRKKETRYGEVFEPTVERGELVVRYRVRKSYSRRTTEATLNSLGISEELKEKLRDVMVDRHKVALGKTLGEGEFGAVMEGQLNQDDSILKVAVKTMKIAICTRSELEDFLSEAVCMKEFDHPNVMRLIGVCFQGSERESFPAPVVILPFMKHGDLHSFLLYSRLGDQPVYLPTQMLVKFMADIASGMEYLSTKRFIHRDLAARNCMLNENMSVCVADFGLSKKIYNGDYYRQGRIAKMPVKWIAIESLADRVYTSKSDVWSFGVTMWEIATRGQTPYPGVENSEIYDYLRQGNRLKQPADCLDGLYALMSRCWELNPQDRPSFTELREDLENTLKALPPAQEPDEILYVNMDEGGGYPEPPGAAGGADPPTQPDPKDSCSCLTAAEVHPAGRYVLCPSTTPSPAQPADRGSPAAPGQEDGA

For the compound `COCC(=O)NC/C=C/c1ccc2ncnc(Nc3ccc(Oc4ccc(C)nc4)c(C)c3)c2c1` [CP-724714], in [1], the % of control turned out to be 100%.
For the compound `N#Cc1cccc(-c2c[nH]c3ncnc(N4CCOCC4)c23)c1`, the % of inhibition in [2] is -1%. The same compound came in with a % of control in experiment [3] of 89%.
`Cc1cc(F)c(C(=O)Nc2cccc(-c3nncn3C(C)C)n2)cc1-n1cnc(C2CC2)c1`: the % of control in experiment [4] is 100%.
For `CNC(=O)Nc1ccc(-c2nc(N3CC4CCC(C3)O4)c3cnn(C4CCC5(CC4)OCCO5)c3n2)cc1`, the % of control in experiment [5] is 100%.
Turning to `Cc1cc([C@@H](C)Nc2ccccc2C(=O)O)c2nc(N3CCOCC3)cc(=O)n2c1` [AZD-6482], the % of control in experiment [6] stood at 95%.
`Cc1cnc(Nc2ccc(F)cc2Cl)nc1-c1c[nH]c(C(=O)N[C@H](CO)c2cccc(Cl)c2)c1`: the % of inhibition in experiment [7] and in experiment [8] was 7% in each case.
`C=CC(=O)Nc1cc(-n2c(=O)ccc3cnc4ccc(-c5ccc(NS(C)(=O)=O)cc5)cc4c32)ccc1C`: the % of control in experiment [9] (at 1 µM) and in experiment [9] (at 10 µM) was 100% in each case.
Take `COc1cc(Nc2nc(C)cc(-c3cnn4nc(OC)ccc34)n2)cc(C(F)(F)F)c1`: the % of control in experiment [10] is 100%.
In the case of `COc1cc(C(=O)N2CC[C@@H](O)[C@@H](N)C2)cc2nc(-c3cc4ccccc4n3CC3CC3)n(C)c12`, the pXC50 in experiment [11] was found to be 4.3 M.
Regarding `Cc1cc(CN)cc(C)c1-c1ncn(C)c1-c1cncn1C`, in experiment [12], the dTM was -1.11 K.
Regarding `CC(C)(O)[C@H](F)CN1Cc2cc(NC(=O)c3cnn4cccnc34)c(N3CCOCC3)cc2C1=O`, the dTM in [13] stood at 0.2 K.
Regarding `C=CC(=O)Nc1ccc(C(=O)Nc2[nH]nc3c2CN(C(=O)N[C@H](CN(C)C)c2ccccc2)C3(C)C)cc1`, in [14], the % of engagement is -0.3%.
